Where “and” joins values, the source holds several entries; their conditions need not be identical. Identical values can stand only once. Like-named read-outs stand apart in the source and are kept apart here. Non-standard residues stand in square brackets, D forms with d. Residues, ends and D or L forms follow the SMILES beside them. *: point of attachment. Dolaproine = CO[C@@H]([C@@H]1CCCN1)[C@@H](C)C(=O)O; Dil = CC[C@H](C)[C@H](NC)[C@@H](CC(=O)O)OC; X1 = C[C@@H](N*)[C@@H](O)c1ccccc1; NMeV = CN[C@H](C(=O)O)C(C)C
Columns and labels:
HL60/MX2 cells = experiment: Cytotoxicity in panel of MDR cell lines, HL60/MX2 (72 h and 144 h); type: cell-based, human
Procedure, shortened: (§1)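 MDR lines were seeded at 1000 cells/well in their normal growth media: RPMI/10% FBS for HCT-15 and HL60/MX2, RPMI/20% FBS for H69AR, and Waymouth's:McCoy's 1:1 with 10% FBS for MES-SA/MX2. Cells were exposed to 1:3 serially diluted payloads for 72 h or 144 h, and viability was read by CellTiter-Glo ATP luminescence. IC50 came from a four-parameter logistic fit; % kill at top concentration = 100 − % viable.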

MES-SA/MX2 cells = experiment: Cytotoxicity in panel of MDR cell lines, MES-SA/MX2 (72 h and 144 h); type: cell-based, human
Procedure, shortened: as §1

H69AR cells = experiment: Cytotoxicity in panel of MDR cell lines, H69AR (72 h and 144 h); type: cell-based, human
Procedure, shortened: as §1

HCT15 cells = experiment: cells; type: cell-based, human; settings: for HCT-15 + verapamil % Kill / IC50 / HCT-15 % Kill: HCT15 cells; for HCT-15 + verapamil % Kill / HCT-15 % Kill: maximum % cell killing
Procedure, shortened: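 HCT15 colorectal carcinoma cells, 1000 per well in RPMI/10% FBS, with or without 5 ug/mL verapamil, exposed to 1:3 serially diluted payloads for 5 days at 37 °C. Viability measured by CellTiter-Glo ATP luminescence; IC50 from four-parameter logistic fit of a 10-point curve, % kill at top concentration.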

C4-2 cells [1] = experiment: Cell-based killing assay of payloads (CellTiter-Glo), C4-2 cells; parameters: species or system human; settings: 5-day incubation; for IC50: average ± SD where replicates; for C4-2 % Kill: at maximum concentration tested (100 − % viable cells)
Procedure, shortened: (§2)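 Cells plated at 4000/well in line-specific complete medium, grown overnight, then exposed to 1:3 serial dilutions of payload (100 nM to […]) for 5 days. ATP-based CellTiter-Glo luminescence read; IC50 from four-parameter logistic 10-point fit, and % kill at top concentration as 100 − % viable.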

HCT-15 cells = experiment: Cytotoxicity in panel of MDR cell lines, HCT-15 (72 h and 144 h); type: cell-based, human
Procedure, shortened: as §1

C4-2 cells [2] = experiment: Cytotoxicity of anti-STEAP2 ADCs, payloads and reference compounds in C4-2 cells; type: cell-based, human
Experimental: To test the ability of the disclosed tubulysin payloads to kill human cell lines, an in vitro cytotoxicity assay was performed. In vitro cytotoxicity of the disclosed payloads, as well as reference compounds, were evaluated using the CellTiter-Glo Assay Kit (Promega, Cat #G7573), in which the quantity of ATP present is used to determine the number of viable cells in culture. For the assay, C4-2, HEK293, or T47D cells were seeded at 4000 cells/well on Nunclon white 96-well plates in complete growth medium (DME high glucose:Ham's F12 at 4:1, 10% FBS, 100 units/ml Penicillin, 100 ug/ml streptomycin, 53 ug/ml glutatmine, 10 ug/ml insulin, 220 ng/ml biotin, 12.5 pg/ml T3, 12.5 ug/ml Adenine, 4 ug/ml transferrin for C42 cells; DME high glucose, 10% FBS, 100 units/ml Penicillin, 100 ug/ml streptomycin, 53 ug/ml glutatmine for HEK293; RPMI, 10% FBS, 100 units/ml Penicillin, 100 ug/ml streptomycin, 53 ug/ml glutatmine, 10 ug/ml insulin, 10 mM HEPEs, 200 nM Sodium Pyruvate for T47D cells) and grown overnight at 37° C. in 5% CO2. For cell viability curves, 1:3 serially diluted payloads were added to the cells at final concentrations ranging from 100 nM to […], including a no treatment control group, and were then incubated for 5 days. After the 5-day incubation, cells were incubated at room temperature with 100 μL of CellTiter-Glo reagents for 10 minutes. Relative luminescence units (RLU) were determined on a Victor plate reader (PerkinElmer). The IC50 values were determined from a four-parameter logistic equation over a 10-point response curve (GraphPad Prism). All IC50 values are expressed in molar (M) concentration. The percent cell killing (% kill) at the maximum concentration tested was estimated from the following formula (100−% viable cells). Averages±standard deviation (SD) are included where replicate experiments were performed.
To further test the ability of the disclosed tubulysin payloads, reference compounds, and antibody drug conjugates using these payloads, a cytotoxicity assay was performed using C4-2 cells as described in this example (see above). For these studies, anti-STEAP2 antibodies were conjugated to select tubulysins payloads, and the compounds were tested at concentrations starting at 100 nM with 3-fold serial dilution. All IC50 values are expressed in nM concentration and the percent cell killing at the maximum concentration tested was estimated from the following formula (100−% viable cells).

HEK293 cells = experiment: Cell-based killing assay of payloads (CellTiter-Glo), HEK293 cells; parameters: species or system human; settings: 5-day incubation; for IC50: Homo sapiens, HEK293, 120 h; for HEK293 % Kill: at maximum concentration tested
Procedure, shortened: as §2

T47D cells = experiment: Cell-based killing assay of payloads (CellTiter-Glo), T47D cells; parameters: species or system human; settings: 5-day incubation; for IC50: Homo sapiens, T47D, 120 h; for T47D % Kill: at maximum concentration tested
Procedure, shortened: as §2

[3] = with 5 ug/mL Verapamil, read-out: HCT-15 + verapamil IC50
[4] = Homo sapiens, 72 h incubation, read-out: HL60/MX2 IC50 72 h
[5] = Homo sapiens, 144 h incubation, read-out: HL60/MX2 IC50 144 h
[6] = Homo sapiens, 72 h incubation, read-out: MES-SA/MX2 IC50 72 h
[7] = Homo sapiens, 144 h incubation, read-out: MES-SA/MX2 IC50 144 h
[8] = Homo sapiens, 72 h incubation, read-out: H69AR IC50 72 h
[9] = Homo sapiens, 144 h incubation, read-out: H69AR IC50 144 h
[10] = Homo sapiens, HCT-15, without Verapamil, read-out: HCT-15 IC50
[11] = Homo sapiens, 72 h incubation, read-out: HCT-15 IC50 72 h
[12] = Homo sapiens, 144 h incubation, read-out: HCT-15 IC50 144 h

CC[C@H](C)[C@@H]([C@@H](CC(=O)N1CCC[C@H]1[C@H](OC)[C@@H](C)C(=O)N[C@H](C)[C@@H](O)c1ccccc1)OC)N(C)C(=O)[C@@H](NC(=O)[C@@H](NC)C(C)C)C(C)C [MMAE, Monomethyl auristatin E, reference compound] (H-[NMeV]V[Dil][Dolaproine]-X1)
HL60/MX2 % Kill 72 h (HL60/MX2 cells; 72 h incubation): 88.7% | IC50 (HL60/MX2 cells; 72 h incubation, read-out: HL60/MX2 IC50 72 h): 0.418 nM | HL60/MX2 % Kill 144 h (HL60/MX2 cells; 144 h incubation): 99.6% | IC50 (HL60/MX2 cells; 144 h incubation, read-out: HL60/MX2 IC50 144 h): 0.164 nM | MES-SA/MX2 % Kill 72 h (MES-SA/MX2 cells; 72 h incubation): 65.6% | IC50 (MES-SA/MX2 cells; 72 h incubation, read-out: MES-SA/MX2 IC50 72 h): 37.3 nM | MES-SA/MX2 % Kill 144 h (MES-SA/MX2 cells; 144 h incubation): 58.1% | IC50 (MES-SA/MX2 cells; 144 h incubation, read-out: MES-SA/MX2 IC50 144 h): 0.683 nM | H69AR % Kill 72 h (H69AR cells; 72 h incubation): 66.8% | IC50 (H69AR cells; 72 h incubation, read-out: H69AR IC50 72 h): 0.923 nM | H69AR % Kill 144 h (H69AR cells; 144 h incubation): 92.7% | IC50 (H69AR cells; 144 h incubation, read-out: H69AR IC50 144 h): 0.683 nM | HCT-15 + verapamil % Kill (HCT15 cells; with 5 ug/mL Verapamil): 98.4 ± 0.5% | IC50 (HCT15 cells; [3]): 0.782 nM | HCT-15 % Kill (HCT15 cells; without Verapamil): 97.1 ± 3.7% | IC50 (HCT15 cells; without Verapamil, read-out: HCT-15 IC50): 17.7 nM | HCT-15 IC50/HCT-15+Verapamil IC50 ratio (HCT15 cells; IC50 without Verapamil divided by IC50 with Verapamil): 23.7 | HCT15 IC50/HCT-15 + Verapamil IC50 (HCT15 cells; ratio of IC50 without Verapamil to IC50 with Verapamil): 23.7 ± 12.0 | IC50 (C4-2 cells [1]): 0.287 nM | C4-2 % Kill (C4-2 cells [1]): 93.7% and 93.7 ± 2.5% | HCT-15 % Kill 72 h (HCT-15 cells; 72 h incubation): 93.7% | IC50 (HCT-15 cells; 72 h incubation, read-out: HCT-15 IC50 72 h): 16.8 nM | % kill (C4-2 cells [2]; at maximum concentration tested): 99% | IC50 (C4-2 cells [2]; top concentration 100 nM, 3-fold serial dilution): 0.22 nM

C#CCCCON(C(=O)[C@@H](NC(=O)[C@H]1CCCCN1C)[C@@H](C)CC)[C@H](C[C@@H](OC(C)=O)c1nc(C(=O)N[C@@H](Cc2ccc(O)cc2)C[C@H](C)C(=O)O)cs1)C(C)C [Vg, (2S,4R)-4-({2-[(1R,3R)-1-(Acetyloxy)-4-methyl-3-[(2S,3S)-3-methyl-2-{[(2R)-1-methylpiperidin-2-yl]formamido}-N-(pent-4-yn-1-yloxy)pentanamido]pentyl]-1,3-thiazol-4-yl}formamido)-5-(4-hydroxyphenyl)-2-methylpentanoic acid]
HL60/MX2 % Kill 72 h (HL60/MX2 cells; 72 h incubation): 98% | HL60/MX2 % Kill 144 h (HL60/MX2 cells; 144 h incubation): 99.9% | IC50 (HL60/MX2 cells; [4]): 0.131 nM | IC50 (HL60/MX2 cells; [5]): 0.061 nM | MES-SA/MX2 % Kill 72 h (MES-SA/MX2 cells; 72 h incubation): 98% | MES-SA/MX2 % Kill 144 h (MES-SA/MX2 cells; 144 h incubation): 99.8% | IC50 (MES-SA/MX2 cells; [6]): 3.54 nM | IC50 (MES-SA/MX2 cells; [7]): 5.3 nM | H69AR % Kill 72 h (H69AR cells; 72 h incubation): 94.2% | H69AR % Kill 144 h (H69AR cells; 144 h incubation): 98.4% | IC50 (H69AR cells; [8]): 2.13 nM | IC50 (H69AR cells; [9]): 2.72 nM | IC50 (HEK293 cells): 0.7 nM | HEK293 % Kill (HEK293 cells): 86.4% | HCT-15 + verapamil % Kill (HCT15 cells; with 5 ug/mL Verapamil): 98% | IC50 (HCT15 cells; [3]): 0.237 nM | HCT-15 % Kill (HCT15 cells; without Verapamil): 94.9% | IC50 (HCT15 cells; [10]): 0.53 nM | IC50 (C4-2 cells [1]; Homo sapiens, C4-2, 120 h): 0.369 nM | C4-2 % Kill (C4-2 cells [1]): 93.2% | HCT-15 % Kill 72 h (HCT-15 cells; 72 h incubation): 97.6% | HCT-15 % Kill 144 h (HCT-15 cells; 144 h incubation): 99.5% | IC50 (HCT-15 cells; [11]): 0.68 nM | IC50 (HCT-15 cells; [12]): 0.916 nM | IC50 (T47D cells): 0.535 nM | T47D % Kill (T47D cells): 65.2%

C#CCCCON(C(=O)[C@@H](NC(=O)[C@H]1CCCCN1C)[C@@H](C)CC)[C@H](C[C@@H](OC(C)=O)c1nc(C(=O)N[C@@H](Cc2ccc(N)cc2)C[C@H](C)C(=O)O)cs1)C(C)C [Vh, (2S,4R)-4-({2-[(1R,3R)-1-(Acetyloxy)-4-methyl-3-[(2S,3S)-3-methyl-2-{[(2R)-1-methylpiperidin-2-yl]formamido}-N-(pent-4-yn-1-yloxy)pentanamido]pentyl]-1,3-thiazol-4-yl}formamido)-5-(4-aminophenyl)-2-methylpentanoic acid]
HL60/MX2 % Kill 72 h (HL60/MX2 cells; 72 h incubation): 97.5% | HL60/MX2 % Kill 144 h (HL60/MX2 cells; 144 h incubation): 99.9% | IC50 (HL60/MX2 cells; [4]): 0.173 nM | IC50 (HL60/MX2 cells; [5]): < 0.015 nM | MES-SA/MX2 % Kill 72 h (MES-SA/MX2 cells; 72 h incubation): 98.4% | MES-SA/MX2 % Kill 144 h (MES-SA/MX2 cells; 144 h incubation): 99.8% | IC50 (MES-SA/MX2 cells; [6]): 2.98 nM | IC50 (MES-SA/MX2 cells; [7]): 8.15 nM | H69AR % Kill 72 h (H69AR cells; 72 h incubation): 93.7% | H69AR % Kill 144 h (H69AR cells; 144 h incubation): 98.4% | IC50 (H69AR cells; [8]): 2.59 nM | IC50 (H69AR cells; [9]): 4.21 nM | IC50 (HEK293 cells): 0.718 nM | HEK293 % Kill (HEK293 cells): 85.6% | HCT-15 + verapamil % Kill (HCT15 cells; with 5 ug/mL Verapamil): 98.1% | IC50 (HCT15 cells; [3]): 0.587 nM | HCT-15 % Kill (HCT15 cells; without Verapamil): 97.7% | IC50 (HCT15 cells; [10]): 1.47 nM | IC50 (C4-2 cells [1]; Homo sapiens, C4-2, 120 h): 0.509 nM | C4-2 % Kill (C4-2 cells [1]): 92% | HCT-15 % Kill 72 h (HCT-15 cells; 72 h incubation): 97% | HCT-15 % Kill 144 h (HCT-15 cells; 144 h incubation): 99.6% | IC50 (HCT-15 cells; [11]): 0.871 nM | IC50 (HCT-15 cells; [12]): 1.27 nM | IC50 (T47D cells): 0.458 nM | T47D % Kill (T47D cells): 64.5%

— patent US12144864B2, “Tubulysins and protein-tubulysin conjugates” (Regeneron Pharmaceuticals, Inc., priority 2018, dated 2024)
